This is an account of results in patent publication US10835500B2, “Medicament for accelerated wound healing” (Symrise AG, priority 2014, dated 2020).

Entries after “also recorded” stand apart in the source; their conditions may differ.

The subject of assay [1] is primary keratinocytes. The experiment in a line: Calcium imaging in primary keratinocytes. To be noted: primary keratinocytes; for calcium signals on repeated stimulation: repeated application (500 μM in FIG. 9). It is filed as cell-based, human. From the text:
The Sandalore®-induced signal cascade in HaCaT cells and primary keratinocytes was pharmacologically characterized using the calcium imaging technique and specific blockers of signal cascade proteins. An investigation was first conducted in order to determine whether the calcium signals are caused by calcium inflow from the extracellular space. For this purpose, a calcium-free extracellular solution was used with a calcium chelator (EGTA) added. […] In order to investigate the role of adenylyl cyclase, the specific blockers SQ-22536 and MDL-12330A were used. […] The efficacy of the blockers was tested in this case with histamine, which activated the PLC signalling pathway (FIG. 11c).
Effect of the OR2AT4 ligand Sandalore® on intracellular calcium concentration of cultivated keratinocytes. […] 100 μM of ATP was used at the end of each measurement as a positive control stimulus. Right: Quantitative evaluation of calcium signals in 4-time application of Sandalore® (500 μM). Shown are the mean values of the individual applications including standard error. Mann-Whitney U test. *: p<0.05. C) and D): dose-dependent activation of HaCaT cells in calcium imaging experiments. Shown are the mean amplitudes including standard error at various concentrations in the first (C) and fourth (D) Sandalore® application. Number of cells measured: 0.0125 mM (39), 0.025 mM (30), 0.1 mM (46), 0.5 mM (34), 1 mM (63), 2 mM (41), 10 mM (36).
A) Representative calcium imaging traces of HaCaT cells (left) and primary keratinocytes (right) incubated with the gap junction blocker 1-octanol (500 μM) and then repeatedly stimulated with Sandalore® (500 μM, horizontal bars) (blue trace). […] 100 μM of ATP was used at the end of each measurement as a positive control stimulus. Quantitative evaluation of HaCaT cells (B) and primary keratinocytes (C) incubated with the gap junction blockers 1-octanol (500 μM) or carbenoxolone (10 μM) and then repeatedly stimulated with Sandalore® (500 μM) or Lyral (1 mM) in calcium imaging experiments. Shown are the mean values of the individual applications including standard error relative to the control measurements (Sandalore® application without blocker). Mann-Whitney U test. Number of cells measured: Sandalore®+1-octanol (HaCaT (110), keratinocytes (26)); Sandalore®+carbenoxolone: HaCaT (74); Lyral+carbenoxolone: HaCaT (43). ***: p<0.001.
Pharmacological characterization of Sandalore®-induced signal cascade in human keratinocytes. A)-D). Shown are representative calcium imaging traces of primary keratinocytes in the presence of a blocker (blue). The horizontal bars correspond to the application times. 100 μM of ATP was used at the end of each measurement as a positive control stimulus. A) Measurement with calcium-free extracellular solution (+10 mM EGTA). B) Measurement with the adenylyl cyclase blocker SQ-22536 (100 μM). C) Use of the phospholipase-C blocker U-73122 (10 μM). 100 μM of histamine was taken as a positive control. D) Measurement with the CNG channel blocker L-cis-diltiazem (150 μM). E) Overview of pharmacological measurement of HaCaT cells and primary keratinocytes (Kera). The mean amplitudes relative to the control measurements (dashed line) are indicated. MDL-12330A (40 μM). EGTA: calcium-free Ringer (HaCaT n=46, Kera n=52), SQ: SQ-22536 (HaCaT n=60, Kera n=26), MDL: MDL-12330A (HaCaT n=69, Kera n=24), U-73122 (HaCaT n=41, Kera n=25), L-cis-D.: L-cis-diltiazem (HaCaT n=41, Kera n=25). Mann-Whitney U test. ***: p<0.001. F) Determination of the cAMP contents of HaCaT cells after stimulation with Sandalore® by means of cAMP-Glo™ assays. The dots show the mean cAMP content including standard error after 10-minute Sandalore® stimulation (1 μM-10,000 μM). Significance was determined between HaCaT cells stimulated with Sandalore® and stimulated with an equivalent volume of DMSO (0.2%). Kruskal-Wallis Test with multiple comparison; n=3 experiments. *: p<0.05.

Assay [2] relates to HaCaT cells. The experiment in a line: Proliferation assay (CyQuant) on HaCaT cells. In kind it is cell-based, human. How it is done:
It was next investigated whether Sandalore® has an effect on the growth behavior of skin cells. For this purpose, HaCaT cells were again stimulated for five days with Sandalore®, and cell count determination was carried out by means of a proliferation assay. […] In order to verify that this increase in proliferation is induced via activation of OR2AT4, HaCaT cells were transfected with siRNA or scRNA respectively, and the proliferation assay was repeated.
In addition, the cell count was determined after costimulation (1:1) by Sandalore® (500 μM) with the antagonists Oxyphenylon (500 μM) or Phenirat (500 μM). […] The effect was significant for Oxyphenylon.
Effect of Sandalore® long-term stimulation on morphology, growth, and migration processes in keratinocytes. A) Phase contrast image and PI stains of HaCaT cells and primary keratinocytes after stimulation with Sandalore® (500 μM) or 0.1% DMSO (control) for five days. On positive PI staining, the cell nuclei are stained red. Scale: 100 μm. B) Evaluation of the proliferation assay carried out with the CyQuant Cell Proliferation Kit on HaCaT cells after 5-day stimulation with 500 μM of Sandalore® or 0.1% DMSO (control). For the RNA interference experiments, the cells were transfected with siRNA or scRNA on the day before Sandalore® stimulation. Shown is the mean cell count including standard error relative to untreated cells. Mann-Whitney U test; n=3 experiments. *: p<0.05; **: p<0.01. S: Sandalore. C) Agarose assay for determination of migration of HaCaT cells. Top: Transmitted light images of HaCaT cells that have migrated in the direction of Sandalore® (500 μM) or 0.1% DMSO. The growth margin of the cells was surrounded in black. Scale: 250 μm. Bottom: Evaluation of the proliferation assay. The longest path traversed by the cells and the overgrown area were measured and compared to the control (0.1% DMSO). Paired two-sided T test. Mean values including standard error; n=4 experiments. **: p<0.01; ***: p<0.001.

In the case of `CC1=CCC(CCC(C)CO)C1(C)C` (stereo not shown) [Brahmanol®], the “calcium signals on repeated stimulation” value in assay [1] is “significant sensitization”.

As to `CC(=O)CCc1ccc(O)cc1` [Oxyphenylon], the “effect of antagonist alone on proliferation” value in assay [2] (antagonist alone) is “no significant effect”. Further, the “proliferation after costimulation with Sandalore” value in assay [2] (costimulation 1:1, Sandalore 500 μM + antagonist 500 μM) is given as “proliferation was reduced. The effect was significant”.

As to `CC1=CCC(CCC(C)C(C)O)C1(C)C` (stereo not shown) [Sandalore®], the “share of cells repeatedly stimulated” value in assay [1] (calcium imaging) is 80-90%. The figures for the “calcium signals on repeated stimulation” value in assay [1] and in assay [1] (listed as Sandalore) were “significant sensitization; also recorded: induced calcium signals” and “significant sensitization”, respectively. Further, the “increase of proliferation compared to the control (0.1% DMSO)” value in assay [2] (5-day stimulation, 500 μM) came to 33%.
